Experimental data: patent US20050112573A1, “Method of detecting toxic substance” (priority 2001, published 2005)

Tested on: yeast genes (level of expressed mRNA)
Assay: DNA chip analysis of expressed mRNA of yeast genes after 2 h culture with a toxic chemical substance
Assay type: cell-based, Saccharomyces cerevisiae S288C
Details: for The level of expressed mRNA in the presence of chemical substance/ (ratio to absence of chemical substance): stress protein genes, DNA chip
Experimental: Yeast (Saccharomyces cerevtisiae S288C (α SUC2mal mel gap2 CUP1)) were cultured at 25° C. on YPD medium (yeast extract 1%, polypepton 2%, glucose 2%). One of toxic chemical substances was added to the cell at logarithmic growth phase, and the cell was further cultured for two hours. Cell was cultured without any chemical substance in the same condition, and was used as control. Concentrations of the chemical substances were defined to inhibit the growth of the yeast but not lead to death.
After the completion of cultivation, the culture was centrifuged to collect the cells. To the cells, sodium acetate buffer (50 mM sodium acetate, 10 mM EDTA, 1% SDS) was added, and the mixture was shaken at 65° C. for five minutes, followed by returning to room temperature, and obtaining the supernatant, which procedure was repeated two times. To the supernatant, ½ amount of a solution of phenol/chloroform was added, and the mixture was centrifuged to give a supernatant, which was added with an equal amount of chloroform, and the mixture was centrifuged to give a supernatant. To the supernatant, an equal amount of isopropanol containing 0.3 M sodium acetate was added, and the mixture was allowed to stand at room temperature for 30 minutes, after which the mixture was centrifuged to give a sediment of the whole RNAs. Seventy % ethanol was added to the sediment, and the mixture was again centrifuged to give a sediment, which was then dried and dissolved in water. mRNA was isolated from the whole RNAs as followings. In view of the fact that a poly A chain is attached to the 3′ terminus of mRNA, a polynucleotide having a poly T structure which was immobilized on the surface of latex beads was used to trap the mRNA, and then the mRNA was washed and eluted with spine column (Oligotex-dT30<Super>mRNA Purification Kit, Takara). Reverse transcription of the mRNA was conducted with a reverse transcriptase (Super Script II Reverse Transcriptase; catalogue No. 18064-014, GibcoBRL) using fluorescence-labeled nucleotides to give cDNAs that were introduced with Cy3-dUTP or Cy5-dUTP during the reverse transcription.
The labeled cDNAs were dissolved in TE buffer (10 mM Tris-HCl/1 mM EDTA, pH8.0), and the solution was dropped on the DNA chip containing the whole genes of yeast (DNA Chip Research Inc. Japan) so that the cDNAs were hybridized on the DNA chip at 65° C. for over 12 hours. The fluoresces intensity of the DNA chip was read with a scanner, and the ratio relative to the fluorescence intensity resulting from the absence of chemical substance was estimated as the following, which is shown in Tables 1 to 9: [formula]
In the Tables, “Intensity” indicated in the rightmost column is a value of the level of expressed mRNA of each gene in control cells as divided by the average level of the expressions of the whole genes.

SMILES: C=CC=O [(14), acrolein]
- The level of expressed mRNA in the presence of chemical substance/absence: YOR267C (gene YOR267C): 0.9
- The level of expressed mRNA in the presence of chemical substance/absence: YOR325W (gene YOR325W): 1.3
- level of expressed mRNA in the presence of chemical substance/in its absence (gene YOR336W): 1.1
- level of expressed mRNA in the presence of chemical substance/in its absence (gene YOR344C): 0.6
- level of expressed mRNA in the presence of chemical substance/in its absence (gene YOR347C): 0.9
- The level of expressed mRNA in the presence of chemical substance/absence: YPL005W (gene YPL005W): 1.0
- level of expressed mRNA in the presence of chemical substance/in its absence (gene YPL017C): 1.6
- The level of expressed mRNA in the presence of chemical substance / the level in the absence of chemical substance, yeast gene YPL107W (gene YPL107W, DNA chip fluorescence ratio to control without chemical, 2 hours culture with chemical, growth-inhibiting non-lethal concentration): 1.7
- The level of expressed mRNA in the presence of chemical substance / the level in the absence of chemical substance, yeast gene YPL138C (gene YPL138C, DNA chip fluorescence ratio to control without chemical, 2 hours culture with chemical, growth-inhibiting non-lethal concentration): 1.3
- The level of expressed mRNA in the presence of chemical substance/absence: YPL150W (gene YPL150W): 1.0
- The level of expressed mRNA in the presence of chemical substance/absence: YPL151C (gene YPL151C): 0.9
- The level of expressed mRNA in the presence of chemical substance/absence: YPL152W (gene YPL152W): 1.2
- The level of expressed mRNA in the presence of chemical substance/absence: YPL168W (gene YPL168W): 1.0
- The level of expressed mRNA in the presence of chemical substance/absence: YPL180W (gene YPL180W): 1.0
- The level of expressed mRNA in the presence of chemical substance/absence: YPL188W (gene YPL188W): 1.4
- The level of expressed mRNA in the presence of chemical substance/absence: YPL221W (gene YPL221W): 0.8
- The level of expressed mRNA in the presence of chemical substance/absence: YPL225W (gene YPL225W): 1.4
- The level of expressed mRNA in the presence of chemical substance/absence: YPL249C (gene YPL249C): 1.0
- The level of expressed mRNA in the presence of chemical substance/absence: YPL260W (gene YPL260W): 1.1
- level of expressed mRNA in the presence of chemical substance/in its absence (gene YPL265W): 1.1
- level of expressed mRNA in the presence of chemical substance/in its absence (gene YPR006C): 1.2
- level of expressed mRNA in the presence of chemical substance/in its absence (gene YPR026W): 1.5
- The level of expressed mRNA in the presence of chemical substance/absence: YPR049C (gene YPR049C): 1.4
- The level of expressed mRNA in the presence of chemical substance/absence: YPR061C (gene YPR061C): 1.7
- The level of expressed mRNA in the presence of chemical substance/absence: YPR093C (gene YPR093C): 1.1
- The level of expressed mRNA in the presence of chemical substance/absence: YPR146C (gene YPR146C): 0.9
- The level of expressed mRNA in the presence of chemical substance/absence: YPR148C (gene YPR148C): 1.1
- The level of expressed mRNA in the presence of chemical substance/absence: YPR150W (gene YPR150W): 1.4
- The level of expressed mRNA in the presence of chemical substance/absence: YPR158W (gene YPR158W): 1.1
- The level of expressed mRNA in the presence of chemical substance/absence: YPR169W (gene YPR169W): 1.0
- The level of expressed mRNA in the presence of chemical substance/absence: YPR172W (gene YPR172W): 1.6
- The level of expressed mRNA in the presence of chemical substance/absence: YPR174C (gene YPR174C): 0.9
- The level of expressed mRNA in the presence of chemical substance/The level of expressed mRNA in the absence of chemical substance (yeast gene YAR010C): 1.0
- The level of expressed mRNA in the presence of chemical substance/The level of expressed mRNA in the absence of chemical substance (yeast gene YBL005W-A): 1.4
- The level of expressed mRNA in the presence of chemical substance/ (ratio to absence), gene YBL038W (yeast gene YBL038W, mitochondria-located protein genes, 2 h culture with chemical): 2.3
- The level of expressed mRNA in the presence of chemical substance/The level of expressed mRNA in the absence of chemical substance (yeast gene YBL041W): 2.0
- The level of expressed mRNA in the presence of chemical substance/The level of expressed mRNA in the absence of chemical substance (yeast gene YBL043W): 1.9
- The level of expressed mRNA in the presence of chemical substance/The level of expressed mRNA in the absence of chemical substance (yeast gene YBL078C): 3.6
- The level of expressed mRNA in the presence of chemical substance/ (ratio to absence of chemical substance) (yeast gene YBL093C): 1.0
- The level of expressed mRNA in the presence of chemical substance/ (in its absence), gene YBR036C (yeast gene YBR036C, ratio of DNA chip fluorescence intensity to that without chemical substance): 0.8
- The level of expressed mRNA in the presence of chemical substance/ (ratio to absence of chemical substance) (yeast gene YBR044C): 0.9
- The level of expressed mRNA in the presence of chemical substance/ (ratio to absence), gene YBR122C (yeast gene YBR122C, mitochondria-located protein genes, 2 h culture with chemical): 1.2
- The level of expressed mRNA in the presence of chemical substance/The level of expressed mRNA in the absence of chemical substance (yeast gene YBR214W): 0.9
- The level of expressed mRNA in the presence of chemical substance/ (ratio to absence), gene YBR251W (yeast gene YBR251W, mitochondria-located protein genes, 2 h culture with chemical): 1.6
- The level of expressed mRNA in the presence of chemical substance/ (in its absence), gene YBR298C (yeast gene YBR298C, ratio of DNA chip fluorescence intensity to that without chemical substance): 0.9
- The level of expressed mRNA in the presence of chemical substance/The level of expressed mRNA in the absence of chemical substance (yeast gene YCL020W): 1.7
- The level of expressed mRNA in the presence of chemical substance/The level of expressed mRNA in the absence of chemical substance (yeast gene YCL027W): 1.2
- The level of expressed mRNA in the presence of chemical substance/The level of expressed mRNA in the absence of chemical substance (yeast gene YCR004C): 3.7
- The level of expressed mRNA in the presence of chemical substance/ (ratio to absence), gene YCR046C (yeast gene YCR046C, mitochondria-located protein genes, 2 h culture with chemical): 1.3
- The level of expressed mRNA in the presence of chemical substance/The level of expressed mRNA in the absence of chemical substance (yeast gene YCR071C): 1.7
- The level of expressed mRNA in the presence of chemical substance/ (ratio to absence), gene YCR083W (yeast gene YCR083W, mitochondria-located protein genes, 2 h culture with chemical): 2.4
- The level of expressed mRNA in the presence of chemical substance/ (ratio to absence of chemical substance) (yeast gene YCR083W): 2.4
- The level of expressed mRNA in the presence of chemical substance/The level of expressed mRNA in the absence of chemical substance (yeast gene YCR088W): 0.9
- The level of expressed mRNA in the presence of chemical substance/The level of expressed mRNA in the absence of chemical substance (yeast gene YDL008W): 2.2
- The level of expressed mRNA in the presence of chemical substance/ in its absence, gene YDL067C (yeast gene YDL067C, energy system protein genes, 2 h culture with the chemical, ratio to control without chemical): 1.4
- The level of expressed mRNA in the presence of chemical substance/ (ratio to absence), gene YDL067C (yeast gene YDL067C, mitochondria-located protein genes, 2 h culture with chemical): 1.4
- The level of expressed mRNA in the presence of chemical substance/ in its absence, gene YDL078C (yeast gene YDL078C, energy system protein genes, 2 h culture with the chemical, ratio to control without chemical): 0.8
